The source of these data is PubChem BioAssay AID624258 (Broad Institute, 2012).

The structures appear in SMILES notation. Where “and” joins values, the source holds several entries; their conditions need not be identical. Identical values can stand only once. Calls of active or inactive are those of the source. No rule for the calls is given here.

A short description of one experiment: SKN7 mediated toxicity in Saccharomyces cerevisiae, growth rescue counterscreen, dose confirmation (AID 624258).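 Also: growth read after three days of incubation at 30 °C; 0% = median of neutral control wells.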 The conditions noted are these: S. cerevisiae SKN7-toxicity growth rescue, plate reader; at 2.1 µM (top of the series).
Turning to `O=S(=O)(Nc1ccccc1)c1ccc(Oc2ncc(C(F)(F)F)cc2Cl)cc1`, the growth rescue activity was -15.3% (inactive).

Still in this experiment, the particulars now being: S. cerevisiae SKN7-toxicity growth rescue, plate reader; at 6.8 µM (top of the series).
As for `CN(C)CCCNc1cc(C(C)(C)C)nc2c(-c3ccc(Cl)cc3)cnn12`, the growth rescue activity is 14.1% (inactive).
With `COc1cc2c(cc1OC)C(C)N(C(=O)c1cccc([N+](=O)[O-])c1)CC2` (stereo not given), the growth rescue activity was -17.8% (inactive).
Regarding `COc1cccc(C(C)=C2SC(=S)NC2=O)c1`, the growth rescue activity is -39% (inactive).
For the compound `Cc1ccc2c(c1C)-c1c(ccc(C)c1C)C(=O)C2=O`, the growth rescue activity was -4.89% (inactive).

The experiment is the same for the next values; noted with them: S. cerevisiae SKN7-toxicity growth rescue, plate reader; at 19.5 µM (top of the series).
On to `Cc1cc(/C=C2\SC(=S)N(C)C2=O)c(C)n1-c1ccc(O)cc1`, for which the growth rescue activity was -39.6% (inactive).
Still for that read-out and setting: with `CC(=O)NC(=S)NNC(=O)C(c1ccccc1)c1ccccc1` the figure was -30.2% (inactive); with `Cc1c(C(=O)O)cccc1-c1ccc(/C=N/Nc2ccc(Br)cc2)o1`, -92.6% (inactive).
In the case of `COC(=O)COC(=O)c1ccccc1NC(=O)c1ccccc1`, the growth rescue activity is -40.9% (inactive).
With `CCOC(=O)N1C(=O)C2(CCCCC2)N(c2ccccc2Cl)C1=S`, the growth rescue activity was -49.5% (inactive).
In the case of `CN1CCN(C(c2ccccn2)c2cc(Cl)c3cccnc3c2O)CC1` (stereo not given), the growth rescue activity is -64.1% (inactive).
Regarding `O=C(CC1(O)C(=O)Nc2cc(Cl)cc(Cl)c21)c1ccncc1` (stereo not given), the growth rescue activity was -23.3% (inactive).
Turning to `Oc1c(C(Nc2ccccn2)c2ccccn2)ccc2cccnc12` (stereo not given), the growth rescue activity is -61.4% (inactive).
Turning to `CCCCn1c(=O)c(C(=O)NCc2ccncc2)c(O)c2ccccc21`, the growth rescue activity was 33% (inactive).
Same read-out and setting: to `CN(C)c1nc(-c2ccccn2)nnc1-c1ccccc1` belongs -23.6% (inactive).
Consider `O=C(Nc1nc(-c2ccccn2)cs1)c1ccc(Br)s1`, for which the growth rescue activity was -44.2% (inactive).
On to `CN(C)CCCNC(=O)c1ccc(-c2nc(-c3ccc(Cl)cc3)cs2)cc1`, for which the growth rescue activity is 0.817% (inactive).
As for `Cc1cc2nc(-c3ccc4c(c3)CCC4)ccn2n1`, the growth rescue activity is -10.6% (inactive).
As for `N#Cc1c(-c2ccc(Cl)cc2)nc2n(c1=O)CCCS2`, the growth rescue activity was 35.4% (inactive).
Take `C=CCn1c(-c2cc(-c3ccc(C)cc3)nc3ccccc23)n[nH]c1=S`: the growth rescue activity is 0.203% (inactive).
Turning to `O=C(Oc1c(Cl)cc(Cl)c2cccnc12)c1cccs1`, the growth rescue activity is -79.3% (inactive).
Consider `COC(=O)Cc1cc(=O)n(-c2ccccc2)[nH]1`, for which the growth rescue activity was 9.07% (inactive).
As to `c1cnc2c(c1)ccc1cccnc12`, the growth rescue activity was -64% (inactive).
As to `Clc1ccc(C2=NCCN2)cc1`, the growth rescue activity was -65.4% (inactive).
For the compound `O=C1Nc2c(Br)cccc2C1=O`, the growth rescue activity is -9.27% (inactive).
`C=CCN(CC=C)C(=S)NC(=O)c1ccc(C)c(Br)c1`: the growth rescue activity is -13.6% (inactive).
With `Oc1c(I)cc(Cl)c2cccnc12`, the growth rescue activity is -81.1% (inactive).
On to `COc1cnc(-c2ccccn2)nc1Sc1ccccc1`, for which the growth rescue activity was -65.3% (inactive).
Still for that read-out and setting: to `CC1Oc2ccccc2C=C1/C=N/Nc1ccc(C(=O)O)cc1` (stereo not given) belongs -32.7% (inactive); to `CCOC(=O)C1=C(C)NC(=O)C1CC(=O)O` (stereo not given), -16.2% (inactive).
Same read-out and setting: to `Oc1ccc(Br)cc1/C=N/Nc1ccccn1` belongs -73.9% (inactive).
On the same count and under the same terms, with `Cc1ccccc1CN(C)CCS(=O)(=O)c1cc(Cl)ccc1Cl` the figure was -67.7% (inactive).
As to `C=CCOCCN(C)C1=NS(=O)(=O)c2cc([N+](=O)[O-])ccc21`, the growth rescue activity is -14.3% (inactive).
`Cc1ccc(NC(=O)C2COc3ccccc3O2)cc1S(=O)(=O)N1CCCCC1` (stereo not given): the growth rescue activity was 35.9% (inactive).
As to `FC(F)(F)c1cccc(N2CCc3cn[nH]c32)c1`, the growth rescue activity was -94.6% (inactive).
Take `c1ccc(-c2ccc(OCCCn3cncn3)cc2)cc1`: the growth rescue activity was -51.8% (inactive).
With `COC(=O)/C(=C/Nc1ccc(O)cc1)[N+](=O)[O-]`, the growth rescue activity is -10% (inactive).
Regarding `CC1=CC(C)(C)N(S(=O)(=O)c2ccc(C)cc2)c2ccc(C)cc21`, the growth rescue activity is -55.9% (inactive).
The same measure, in the same setting: to `Oc1ccccc1-c1cc(-c2ccc3c(c2)OCCO3)n[nH]1` belongs 2.6% (inactive); to `O=C(CCl)NCCCCCCCCCNC(=O)CCl`, 8.47% (inactive).
Still for that read-out and setting: to `CC1CN(C(=O)c2cc([N+](=O)[O-])cc([N+](=O)[O-])c2)CC(C)O1` (stereo not given) belongs -63% (inactive); to `N#Cc1cc2c(nc1SCc1ccccc1)CCCC2=O`, -24.7% (inactive); to `O=C1C(Cl)=C(NCc2cccnc2)C(=O)c2ccccc21`, 26.7% (inactive).
Regarding `O=C1C(Nc2ccccc2)=C/C(=N/S(=O)(=O)c2cccs2)c2ccccc21`, the growth rescue activity is -8.54% (inactive).
As to `CCOc1ccc(S(=O)(=O)n2cc(F)c(=O)[nH]c2=O)cc1`, the growth rescue activity was -4.21% (inactive).
As to `CCC(C)n1ncn(-c2ccc(N3CCN(c4ccc(OCC5COC(Cn6cncn6)(c6ccc(Cl)cc6Cl)O5)cc4)CC3)cc2)c1=O` (stereo not given), the growth rescue activity is -70.7% (inactive).
On the same count and under the same terms, to `O=C1C=C(N(CCO)Cc2ccccc2)c2ccccc2C1=O` belongs 12.2% (inactive); to `Cc1cccc(NC(=S)NC(C)CCc2ccccc2)c1` (stereo not given), -40.4% (inactive); to `O=C1C=C(NCCc2cc(Br)c(O)c(Br)c2)C(=O)c2ncccc21`, 30.5% (inactive).
On the same count and under the same terms, with `S=C1NC[C@H](c2ccccc2)N1CCCCC1CCCCC1` the figure was 85.2% (inactive).
`c1ccc(C(=NNc2nc3ccccc3s2)c2ccccn2)cc1`: the growth rescue activity was -69.9% (inactive).
`Clc1ccc(COC(Cn2ccnc2)c2ccc(Cl)cc2Cl)c(Cl)c1` (stereo not given): the growth rescue activity was -74.2% (inactive) and -75.5% (inactive).
Consider `Cc1ccc(O)c(-c2cc(-c3ccccc3C)[nH]n2)c1`, for which the growth rescue activity was -92.1% (inactive).
Take `CN(C)c1ccc(C=c2c3ccccc3n3c2cc(-c2ccc(Cl)cc2)[n+]3C)cc1`: the growth rescue activity is -52.4% (inactive).
As to `COc1cccc(C(=O)Nc2sc(C(C)C)cc2C(N)=O)c1OC`, the growth rescue activity was 93.8% (inactive).
For `COc1ccc(OC)c(-c2c3cc(O)c(=O)cc-3oc3cc(O)c(O)cc23)c1`, the growth rescue activity is 26.2% (inactive).
The same measure, in the same setting: with `CN(C)S(=O)(=O)Oc1cccc(C(=O)Nc2ccc(Cl)cc2)c1` the figure was -19.4% (inactive); with `CSc1nc(-c2ccccc2F)c(C#N)c(=O)n1C`, 47.9% (inactive); with `Cc1ccc(C)c(/C=C/C(=O)c2ccccc(=O)c2O)c1`, -77% (inactive).
For `O=C(Nc1ccc(Cl)cc1C(=O)Nc1ccc(Br)cn1)c1ccco1`, the growth rescue activity was -90.7% (inactive).
In the case of `CCOc1ccc(N/N=C(/C#N)C(N)=O)cc1`, the growth rescue activity is -49.6% (inactive).
For `Cc1cc(OCc2cccc(S(=O)(=O)N3CCOCC3)c2)ccc1Cl`, the growth rescue activity is 66.7% (inactive).
Still for that read-out and setting: with `Clc1ccccc1CN(Cc1ccco1)Cc1nnnn1C1CCCC1` the figure was -4.89% (inactive); with `Cc1cccc(N2CCN(C(=O)C3COc4ccccc4O3)CC2)c1C` (stereo not given), -49.4% (inactive).
For the compound `CCCCOC(=O)/C=C/c1ccc(OC(=O)OC)c(OC(=O)OC)c1`, the growth rescue activity is -13.9% (inactive).
Take `O=C(O)CSc1cc(NS(=O)(=O)c2ccc(Br)cc2)c2ccccc2c1O`: the growth rescue activity is 30.5% (inactive).
In the case of `CCCc1c(C)nn(C(=O)/C(C#N)=N/Nc2ccccc2[N+](=O)[O-])c1C`, the growth rescue activity was -8.75% (inactive).
With `C=CCNC(=S)N1CCC(Cc2ccccc2)CC1`, the growth rescue activity is -41% (inactive).
`Oc1c(C(Nc2ccccn2)c2cccnc2)cc(Cl)c2cccnc12` (stereo not given): the growth rescue activity was -70.7% (inactive).
As to `CC1(C)C(C=C(Cl)Cl)C1C(=O)N1CCN(c2ccccc2)CC1` (stereo not given), the growth rescue activity was 6.49% (inactive).
Regarding `CN(C)c1nc(SCc2ccc(Cl)cc2)nc2c1CCCC2`, the growth rescue activity was -65.9% (inactive).
Consider `O=C(N/N=C/c1cc(Br)cc(Cl)c1O)c1ccc2c(c1)OCO2`, for which the growth rescue activity was -36.6% (inactive).
Regarding `O=C1CC(c2cccc([N+](=O)[O-])c2)c2ccc3ccccc3c2N1` (stereo not given), the growth rescue activity was 47.4% (inactive).
As for `Cc1ccc(Nc2cc(C)nn2-c2nc(C)cc(C)n2)cc1`, the growth rescue activity was -73.3% (inactive).
On to `COc1ccc2oc(=O)c(-c3csc(Nc4cccc(O)c4)n3)cc2c1`, for which the growth rescue activity is 12.4% (inactive).
As to `Cc1ccc(-n2nnnc2SCC(=O)N2CCc3ccccc3C2)c(C)c1`, the growth rescue activity was -18.8% (inactive).
Take `CC1CCc2c(C(=O)Nc3ccccn3)csc2C1` (stereo not given): the growth rescue activity was -95.2% (inactive).
With `S=C(NC1CCCC1)N1CCN(c2cccc(Cl)c2)CC1`, the growth rescue activity was 13.6% (inactive).
Take `Oc1c(C(Nc2cccc(C(F)(F)F)c2)c2ccncc2)ccc2cccnc12` (stereo not given): the growth rescue activity is -60.6% (inactive).
As for `FC(F)(F)c1cccc(N2CCN(C(=S)NC3CCCCC3)CC2)c1`, the growth rescue activity is 64.1% (inactive).
The same measure, in the same setting: with `O=C(Sc1cccc2cccnc12)c1ccccc1Br` the figure was -59.6% (inactive).
For the compound `O=S(=O)(c1c(Cl)sc(Cl)c1Br)N1CCCC1`, the growth rescue activity was -25% (inactive).
Same read-out and setting: to `COc1ccc(N(C)S(=O)(=O)c2ccc(Cl)c(C(=O)NNC(=O)c3ccccc3O)c2)cc1` belongs 4.7% (inactive).
For the compound `CN(Cc1cccc(F)c1)C(=O)c1ccc(S(=O)(=O)N2CCCCCC2)cc1`, the growth rescue activity is -8.45% (inactive).
Regarding `O=C(Oc1c(-c2ccccc2)c(=O)n2c3c(cccc13)CC2)c1cccc([N+](=O)[O-])c1`, the growth rescue activity is -37.6% (inactive).
